Values of other authors as cited in patent US20050085455A1, “Photodynamic therapy for local adipocyte reduction” (Light Sciences Corporation, priority 2003, published 2005).

Conditions: systemically administered sensitizer in clinical use; for duration of skin sensitization: result in words

In the case of CCOC(=O)C1=Cc2c3nc(cc4nc(cc5[n-]c(cc6[n-]c2c(C)c6CC)c(C)c5CC)C(C)=C4CC)[C@@H](C)[C@]13CC.[Cl-].[Cl-].[Sn] (racemic) [Purlytin], the “duration of skin sensitization” value is listed as “several weeks”.

In the case of Oc1cccc(-c2c3nc(c(-c4cccc(O)c4)c4ccc([nH]4)c(-c4cccc(O)c4)c4nc(c(-c5cccc(O)c5)c5ccc2[nH]5)CC4)C=C3)c1 [Foscan], the “duration of skin sensitization” value is listed as “several weeks”.

For sodium porfimer [Photophrin], the duration of photosensitivity (skin photosensitivity) is given as “up to 6 weeks”.
